The text below walks through data of publication PMC11941790, “Reactions of Plasmodium falciparum Type II NADH: Ubiquinone Oxidoreductase with Nonphysiological Quinoidal and Nitroaromatic Oxidants” (International Journal of Molecular Sciences, 2025).

For assay [1], the target named is T1, type II NADH:ubiquinone oxidoreductase (PfNDH2) (Plasmodium falciparum, UniProt Q8I302).
T1 construct: gene PF3D7_0915000; His-tagged PfNDH2 (pET45, E. coli)
T1 sequence (Q8I302 31-533): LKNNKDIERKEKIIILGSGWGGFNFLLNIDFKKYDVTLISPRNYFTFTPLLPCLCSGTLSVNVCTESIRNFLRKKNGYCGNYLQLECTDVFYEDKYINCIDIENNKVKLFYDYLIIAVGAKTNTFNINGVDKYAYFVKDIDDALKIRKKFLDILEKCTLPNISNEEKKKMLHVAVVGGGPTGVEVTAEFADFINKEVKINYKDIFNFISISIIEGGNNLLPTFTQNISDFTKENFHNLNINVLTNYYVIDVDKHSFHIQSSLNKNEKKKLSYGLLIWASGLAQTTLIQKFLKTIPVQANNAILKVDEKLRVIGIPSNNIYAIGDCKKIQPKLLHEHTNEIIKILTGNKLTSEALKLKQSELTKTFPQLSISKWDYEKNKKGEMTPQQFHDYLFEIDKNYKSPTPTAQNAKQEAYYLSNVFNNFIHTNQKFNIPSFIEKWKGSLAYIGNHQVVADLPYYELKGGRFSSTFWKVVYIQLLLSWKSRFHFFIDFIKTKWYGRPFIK
The assay is described as follows: steady-state kinetics, competitive inhibition vs NADH. It counts as biochemical.

Assay [2] concerns the target T1, type II NADH:ubiquinone oxidoreductase (PfNDH2). The assay is described as follows: steady-state kinetics, competitive product inhibition vs NADH with naphthazarin as acceptor. It is filed as biochemical.

In the case of `Nc1ncnc2c1ncn2[C@@H]1O[C@H](COP(=O)(O)OP(=O)(O)OC[C@H]2OC(O)[C@H](O)[C@@H]2O)[C@@H](O)[C@H]1O` (some centres unmarked) [ADP-ribose], the Ki (in general, a measure of affinity in units of concentration, obtained from inhibition or displacement) in assay [1] came out at 2.5 ± 0.3 mM.

In assay [2], `NC(=O)c1ccc[n+]([C@@H]2O[C@H](COP(=O)([O-])OP(=O)(O)OC[C@H]3O[C@@H](n4cnc5c(N)ncnc54)[C@H](O)[C@@H]3O)[C@@H](O)[C@H]2O)c1` [NAD^+] registered a Ki of 3.7 ± 0.4 mM.
